Earlier results on one molecule are cited in patent US4112071A, “Antibiotic complex” (priority 1977, dated 1978).

For series [1], the system named is several animal tumor systems. The conditions noted are these: J. Antibiotics, April 1974, 254-259.
In the next series the test system is animal and human cancers. Conditions: Cancer Chemother. Rep., Part 1, 58, 255 (1974).

Take `CC(=O)[C@]1(O)Cc2c(O)c3c(c(O)c2[C@@H](O[C@H]2C[C@H](N)[C@H](O)[C@H](C)O2)C1)C(=O)c1c(O)cccc1C3=O` [carminomycin I]: the “activity against several animal tumor systems” value in series [1] is “active”. Besides, the “antitumor activity in a variety of animal and human cancers” value in the series on animal and human cancers was “promising antitumor activity”.
